Results from patent US5525595A, “3- or 4-glycosyloxybenzopyran derivative and antiallergic agent containing the derivative as active ingredient” (priority 1993, dated 1996).

How the values were obtained:
[1] = system: contact dermatitis induced by picryl chloride; test: Effect on contact dermatitis induced by picryl chloride in mice (delayed type hypersensitization); assay type: in vivo; conditions: Mus musculus; 100 mg/kg oral, ear thickness 24 hours after challenge; Table 6; read-out: Inhibition (%) against the increase of ear thickness
Procedure: The delayed type hypersensitization is inhibited by steroid, but can not be effected by known anti-allergic agents. In the following, the method of the pharmacological test will be explained.
Method: Mice, shaved their abdominal skin on previous day, were immunized by applying 0.1 ml of acetone containing 7 mg of picryl chloride to the skin of the abdomen. 7 days after immunization, the thickness of the ear was measured with a dial thickness gauge, then mice were challenged by painting 5 μl of 1% picryl chloride olive oil solution to each side skin of left ear. 24 hours after challenge, the thickness of the left ear was measured again and the increase (%) of thickness was calculated according to equation 2. The compounds of the present invention (test compounds) suspended in 0.5% CMCNa were forcibly administered orally at a dose of 100 mg/kg at 1 hour before and 16 hours after challenge. As vehicle control group, only 0.5% CMCNa solution were administered orally, and as positive control group, Prednisolone, steroid hormone, and Tranilast were administered orally at the doses of 10 mg/kg and 100 mg/kg, respectively.
Increase (%)=(A-B)/B×100 (Equation 2)
A: thickness of the ear at 24 hours after challenge
B: thickness of the ear before challenge
Inhibition(%)=(C-D)/C×100 (equation 3)
C: The increase (%) in vehicle control group
D: The increase (%) in test compounds group or positive control group

[2] = system: airway resistance in experimental asthma model; test: Effect on experimental asthma model in guinea pigs; assay type: in vivo, guinea pigs (Male hadley); conditions: Cavia porcellus; 100 mg/kg oral, OVA challenge, guinea pigs; Table 7
Procedure: The asthma is typical allergic disease and we carried out this pharmacological test by well known experimental asthma model in guinea pigs in order to confirm that the compounds of the present invention suppress the asthma. In the following, the method of the pharmacological test will be explained.
Method: Male hadley guinea pigs were immunized by intraperitoneal injection of saline (1 ml) containing 5 mg of ovalbumine (OVA) three times at interval of one week. 2 weeks after final immunization, the animals were challenged by inhalation of 1% OVA-saline solution for 1 minute and then the airway resistance of the animals were measured for 30 minutes with PULMOS-1 (Medical Interface Project Station Inc.) after the inhalation. The compounds of the present invention (test compounds) suspended in 0.5% CMCNa were given orally at a dose of 100 mg/kg. As positive control group, Disodium Cromoglicate (DSCG), well known anti-allergic agent, in saline were injected at a dose of 20 mg/kg into the vein of the animals. As vehicle control group, only 0.5% CMCNa solution were given orally. The inhibition (%) of the airway resistance in vehicle control group was calculated according to equation 5 and the result was shown in Table 7. Each experimental group consisted of 5 guinea pigs. [formula] In equation 5: A: Maximum airway resistance in vehicle control group
B: Maximum airway resistance in test compounds group or positive control group

[3] = system: homologous passive cutaneous anaphylaxis (PCA) reaction; test: Effect on homologous passive cutaneous anaphylaxis (PCA) reaction in rats; assay type: in vivo, rats (Male wistar rats); conditions: Rattus norvegicus, 0.5 h; 100 mg/kg oral, 1 hour before antigen, rats; Table 3
Procedure: This experimental animal model is caused by immediate type allergic reaction, namely, antigen-antibody reaction. In the following, the method of this pharmacological test will be explained.
Method: Male wistar rats (9 weeks old) were intradermally administered 0.05 ml of anti-serum against trinitrophenylated ascaris (TNP-As) into two sites on the shaved dorsal skin. 48 hours later, 3-glycosyloxybenzopyran derivatives and 4-glycosyloxybenzopyran derivatives (test compounds) suspended in 0.5% sodium carboxymethylcellulose (CMCNa) were given orally at a dose of 100 mg/kg to the animals. 1 hour after administration of Test compounds, the animals were induced anaphylaxis by injection of saline (1 ml) dissolving 5 mg of Evans Blue and 1 mg of TNP-As into the tail vein of the animals. 30 minutes after induction of anaphylaxis, animals were anesthetized by ether and killed by bleeding, and were flayed dorsal skin. The leakage of dye was assessed by measuring the diameter (mean of shortest and longest diameter) of the blue spot on the inside surface of dorsal skin. As vehicle control group, only 0.5% CMCNa solution was administered orally, and as positive control group, Tranilast suspended in 0.5% CMCNa were administered orally at a dose of 100 mg/kg to the animals with the same method as the test compounds groups. Each experimental group consisted of 5 rats. [formula] In equation 1: A: leakage of dye in vehicle control group
B: leakage of dye in test compound group or in positive control group
The anti-allergic activity of the compounds of the present invention were compared with that of analogous compounds which were published in the Patent (EP-A-0598117) by PCA reaction. This pharmacological test was performed according to the method described in Test Example 1.

Compound | inhibition in vivo at 100 mg/kg [1] [%] | inhibition in vivo at 100 mg/kg [2] [%] | inhibition in vivo at 100 mg/kg [3] [%]
CCCCCCCCOc1ccc2c(O[C@H]3O[C@H](CO)[C@@H](O)[C@H](O)[C@@H]3O)c(O)c(=O)oc2c1 [compound 80] | 50.3 | 63.3 | 50.5
CCCCCCCCOc1ccc2c(O[C@@H]3O[C@H](CO)[C@H](O)[C@H](O)[C@H]3O)c(O)c(=O)oc2c1 [compound 94] | 64.7 | 82.6 | 63.3
CCCCCCCCOc1ccc2c(O)c(O[C@@H]3O[C@H](CO)[C@H](O)[C@H](O)[C@H]3O)c(=O)oc2c1 [compound 34] | 64.2 | 78.3 | 64.3
O=c1oc2cc(O)ccc2c(O[C@H]2O[C@H](CO)[C@@H](O)[C@H](O)[C@@H]2O)c1O [compound 77] | 39.6 | 37.3 | 42.7
CCCCCCCCOc1ccc2c(O)c(O[C@H]3O[C@H](CO)[C@@H](O)[C@H](O)[C@@H]3O)c(=O)oc2c1 [compound 25] | 57.3 | 68.6 | 50.9
CCCCCCCCCCCCOc1ccc2c(O[C@@H]3O[C@H](CO)[C@H](O)[C@H](O)[C@H]3O)c(OC(C)=O)c(=O)oc2c1 [compound 103] | 48.3 | 65.3 | 51.1
CCCCCCOc1ccc2c(O[C@H]3O[C@H](CO)[C@@H](O)[C@H](O)[C@@H]3O)c(O)c(=O)oc2c1 [compound 122] | 53.2 | 62.1 | 52.3
COc1ccc2c(O)c(O[C@@H]3O[C@H](COC(C)=O)[C@@H](OC(C)=O)[C@H](OC(C)=O)[C@H]3OC(C)=O)c(=O)oc2c1 [compound 4, 7-methoxy-4-hydroxy-3-(tetra-O-acety-β-D-glucopyranosyloxy)-2H-1-benzopyran-2-one] | 46.3 | 48.3 | 40.2
O=c1oc2cc(OCc3ccccc3)ccc2c(O)c1O[C@@H]1O[C@H](CO)[C@H](O)[C@H](O)[C@H]1O [compound 40] | 41.3 | 46.2 | 40.5
CCCCOc1ccc2c(O)c(O[C@@H]3O[C@H](CO)[C@H](O)[C@H](O)[C@H]3O)c(=O)oc2c1 [compound 33] | 62.5 | 68.1 | 57.2
COc1ccc2c(OCc3ccccc3)c(O[C@@H]3O[C@H](COC(C)=O)[C@H](OC(C)=O)[C@H](OC(C)=O)[C@H]3OC(C)=O)c(=O)oc2c1 [compound 7, 7-methoxy-4-benzyloxy-3-(tetra-O-acetyl-β-D-galactopyranosyloxy)-2H-1-benzopyran-2-one] | 40.3 | 43.7 | 41.1
CCCCOc1ccc2c(O[C@@H]3O[C@H](CO)[C@H](O)[C@H](O)[C@H]3O)c(O)c(=O)oc2c1 [compound 93] | 59.9 | 60.5 | 57.6
CC(C)=CCC/C(C)=C/COc1ccc2c(O)c(O[C@H]3O[C@H](CO)[C@@H](O)[C@H](O)[C@@H]3O)c(=O)oc2c1 [compound 29] | 53.6 | 56.1 | 45.6
CCC=CCCOc1ccc2c(O)c(O[C@H]3O[C@H](CO)[C@@H](O)[C@H](O)[C@@H]3O)c(=O)oc2c1 [compound 28] | 50.3 | 57.2 | 53.4
O=c1oc2cc(OCc3ccccc3)ccc2c(O)c1O[C@H]1O[C@H](CO)[C@@H](O)[C@H](O)[C@@H]1O [compound 31] | 48.6 | 53.5 | 46.9
O=c1oc2cc(O)ccc2c(O)c1O[C@@H]1O[C@H](CO)[C@@H](O)[C@H](O)[C@H]1O [compound 14] | 47.5 | 52.3 | 50.2
CCCCOc1ccc2c(O[C@@H]3O[C@H](CO)[C@@H](O)[C@H](O)[C@H]3O)c(O)c(=O)oc2c1 [compound 63, 7-butoxy-3-hydroxy-4-(β-D-glucopyranosyloxy)-2H-1-benzopyran-2-one] | 57.1 | 64.7 | 57.4
CC(=O)Oc1ccc2c(O[C@H]3O[C@H](CO)[C@@H](O)[C@H](O)[C@@H]3O)c(O)c(=O)oc2c1 [compound 106] | 40.1 | 46.2 | 42.2
O=c1oc2cc(OCc3ccccc3)ccc2c(O)c1O[C@@H]1O[C@H](CO)[C@@H](O)[C@H](O)[C@H]1O [compound 22] | 53.4 | 59.4 | 53.8
CC(C)=CCC/C(C)=C/COc1ccc2c(O[C@@H]3O[C@H](CO)[C@@H](O)[C@H](O)[C@H]3O)c(O)c(=O)oc2c1 [compound 71] | 57.1 | 65.2 | 57.4
CCCCCCCCCCOc1ccc2c(O[C@@H]3O[C@H](CO)[C@H](O)[C@H](O)[C@H]3O)c(O)c(=O)oc2c1 [compound 95] | 65.1 | 75.4 | 65.1
COc1ccc2c(O)c(O[C@@H]3O[C@H](CO)[C@@H](O)[C@H](O)[C@H]3O)c(=O)oc2c1 [compound 5, 7-methoxy-4-hydroxy-3-(β-D-glucopyranosyloxy)-2H-1-benzopyran-2-one] | 51.2 | 62 | 48.7
CCC=CCCOc1ccc2c(O)c(O[C@@H]3O[C@H](CO)[C@@H](O)[C@H](O)[C@H]3O)c(=O)oc2c1 [compound 19] | 57.4 | 73.1 | 56.8
CCCCCCCCCCCCOc1ccc2c(O[C@@H]3O[C@H](CO)[C@H](O)[C@H](O)[C@H]3O)c(O)c(=O)oc2c1 [compound 96] | 57.8 | 73.1 | 56.6
CC(C)Oc1ccc2c(O[C@H]3O[C@H](CO)[C@@H](O)[C@H](O)[C@@H]3O)c(O)c(=O)oc2c1 [compound 83] | 49.1 | 46.9 | 49.3
CCC=CCCOc1ccc2c(O[C@@H]3O[C@H](CO)[C@H](O)[C@H](O)[C@H]3O)c(O)c(=O)oc2c1 [compound 98] | 61.2 | 72.8 | 60.2
CCCCCCCCCCOc1ccc2c(O[C@@H]3O[C@H](CO)[C@@H](O)[C@H](O)[C@H]3O)c(O)c(=O)oc2c1 [compound 67] | 63.8 | 70.6 | 60.4
